Eight molecules from ChEMBL document CHEMBL4819035, “C-2-Linked Dimeric Strychnine Analogues as Bivalent Ligands Targeting Glycine Receptors” (J Nat Prod, 2021) can be followed below.

The target of assay [1] is T1, Glycine receptor subunit alpha-1 (Homo sapiens, UniProt P23415).
T1 sequence (P23415 whole entry): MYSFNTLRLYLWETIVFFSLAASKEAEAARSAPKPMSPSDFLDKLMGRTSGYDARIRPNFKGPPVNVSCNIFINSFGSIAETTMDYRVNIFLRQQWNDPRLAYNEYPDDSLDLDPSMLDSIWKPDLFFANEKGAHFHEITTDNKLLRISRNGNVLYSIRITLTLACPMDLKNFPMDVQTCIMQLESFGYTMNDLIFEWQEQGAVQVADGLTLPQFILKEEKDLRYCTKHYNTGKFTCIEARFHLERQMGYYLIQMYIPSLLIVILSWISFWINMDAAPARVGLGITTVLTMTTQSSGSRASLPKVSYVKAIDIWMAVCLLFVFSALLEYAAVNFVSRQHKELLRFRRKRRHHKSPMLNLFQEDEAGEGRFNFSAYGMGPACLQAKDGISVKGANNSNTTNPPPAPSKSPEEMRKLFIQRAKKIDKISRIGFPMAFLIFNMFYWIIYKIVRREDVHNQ
Put plainly: Antagonist activity at human glycine receptor subunit alpha-1 expressed in human tsA201 cells assessed as reduction in glycine-induced response incubated for 30 mins by fluorescence-based FLIPR membrane potential blue assay. The class given is cell-based. As to conditions: for IC50: read-out: IC50.

The target of assay [2] is T1, Glycine receptor subunit alpha-1. Put plainly: Antagonist activity at human glycine receptor subunit alpha-1 expressed in HEK293 cells assessed as reduction in glycine-induced currents by whole-cell patch-clamp assay. The class given is cell-based. For orientation: Patch clamp records ionic current or voltage across a cell membrane.
For assay [3], the target named is T2, Glycine receptor (alpha-1/beta) (Homo sapiens, UniProt P23415+P48167). Kind of assay: Antagonist activity at human glycine receptor subunit alpha-1beta expressed in human tsA201 cells assessed as reduction in glycine-induced response incubated for 30 mins by fluorescence-based FLIPR membrane potential blue assay. The class given is cell-based. Conditions: read-out: IC50.
T2 sequence (P48167 whole entry, one chain of several): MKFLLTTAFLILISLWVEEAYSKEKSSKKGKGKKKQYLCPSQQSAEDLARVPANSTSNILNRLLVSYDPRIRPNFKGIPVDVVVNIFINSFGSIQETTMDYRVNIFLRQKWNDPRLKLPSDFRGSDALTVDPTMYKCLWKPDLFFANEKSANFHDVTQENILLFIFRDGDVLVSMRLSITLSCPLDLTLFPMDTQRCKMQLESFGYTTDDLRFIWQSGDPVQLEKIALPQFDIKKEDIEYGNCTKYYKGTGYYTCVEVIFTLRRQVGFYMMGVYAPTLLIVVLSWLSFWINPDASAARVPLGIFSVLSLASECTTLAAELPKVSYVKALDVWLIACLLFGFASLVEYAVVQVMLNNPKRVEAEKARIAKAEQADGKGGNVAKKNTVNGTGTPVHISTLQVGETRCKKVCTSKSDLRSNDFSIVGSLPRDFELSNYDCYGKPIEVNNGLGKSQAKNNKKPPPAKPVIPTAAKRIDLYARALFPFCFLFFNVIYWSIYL

For assay [4], the target named is T2, Glycine receptor (alpha-1/beta). Put plainly: Antagonist activity at human glycine receptor subunit alpha-1beta expressed in HEK293 cells assessed as reduction in glycine-induced currents by whole-cell patch-clamp assay. The class given is cell-based.
In assay [5] the target is T1, Glycine receptor subunit alpha-1. Kind of assay: Displacement of [3H]strychnine from human glycine receptor subunit alpha-1 expressed in HEK293 cell membranes preincubated for 30 mins followed by [3H]strychnine addition and measured after 30 mins by liquid scintillation counting method. On the set-up: species or system Membrane.
The target is the same in assay [6]. Kind of assay: Antagonist activity at human glycine receptor subunit alpha-1 assessed as inhibition of glycine-induced current measured at the onset of compound application by patch-clamp assay.
Assay [7] has the same target. Kind of assay: Antagonist activity at human glycine receptor subunit alpha-1 assessed as inhibition of glycine-induced current measured at the later state of compound application by patch-clamp assay.

A word on the IC50: it is the concentration that inhibits the measured activity by half. Consider `O=C(CCCCCCCCC(=O)Nc1ccc2c(c1)[C@@]13CCN4CC5=CCO[C@H]6CC(=O)N2[C@H]1[C@H]6[C@H]5C[C@H]43)Nc1ccc2c(c1)[C@@]13CCN4CC5=CCO[C@H]6CC(=O)N2[C@H]1[C@H]6[C@H]5C[C@H]43`, for which the IC50 worked out at 7.2 µM in assay [1], 1500 nM in assay [2], 10 µM in assay [3] and 1900 nM in assay [4].
Regarding `O=C(CCCCCCCCCCC(=O)Nc1ccc2c(c1)[C@@]13CCN4CC5=CCO[C@H]6CC(=O)N2[C@H]1[C@H]6[C@H]5C[C@H]43)Nc1ccc2c(c1)[C@@]13CCN4CC5=CCO[C@H]6CC(=O)N2[C@H]1[C@H]6[C@H]5C[C@H]43`, the IC50 was found to be 1.1 µM in assay [1], 720 nM in assay [2], 1.8 µM in assay [3] and 800 nM in assay [4].
The term Ki denotes a dissociation constant, usually derived from enzyme kinetics or from competition with a known ligand. Read a low Ki as higher affinity. Turning to `O=C(CCOCCOCCOCCOCCOCCOCCOCCOCCOCCOCCOCCOCCC(=O)NCCCCCCCCCCC(=O)Nc1ccc2c(c1)[C@@]13CCN4CC5=CCO[C@H]6CC(=O)N2[C@H]1[C@H]6[C@H]5C[C@H]43)NCCCCCCCCCCC(=O)Nc1ccc2c(c1)[C@@]13CCN4CC5=CCO[C@H]6CC(=O)N2[C@H]1[C@H]6[C@H]5C[C@H]43`, the IC50 was found to be 10 µM in assay [1], 3310 nM in assay [6], 3.9 µM in assay [3] and 67 nM in assay [7]. This molecule displayed an inhibition constant (Ki) in assay [5] of 204 nM.
Turning to `O=C(CCCCCCC(=O)Nc1ccc2c(c1)[C@@]13CCN4CC5=CCO[C@H]6CC(=O)N2[C@H]1[C@H]6[C@H]5C[C@H]43)Nc1ccc2c(c1)[C@@]13CCN4CC5=CCO[C@H]6CC(=O)N2[C@H]1[C@H]6[C@H]5C[C@H]43`, the 50% inhibitory concentration (IC50) stood at 6.9 µM in assay [1], 1100 nM in assay [2], 10 µM in assay [3] and 1300 nM in assay [4].
Regarding `COCCOCCOCCOCCOCCOCCOCCOCCOCCOCCOCCOCCC(=O)NCCCCCCCCCCC(=O)Nc1ccc2c(c1)[C@@]13CCN4CC5=CCO[C@H]6CC(=O)N2[C@H]1[C@H]6[C@H]5C[C@H]43`, the IC50 in assay [1] is 20 µM; in assay [6], 5720 nM; in assay [3] it was 10 µM; in assay [7] it was 158 nM. The molecule also had a Ki in assay [5] of 977 nM.
For the molecule `O=C(CCOCCOCCOCCOCCOCCOCCOCCOCCOCCOCCOCCOCCC(=O)NCCCCC(=O)Nc1ccc2c(c1)[C@@]13CCN4CC5=CCO[C@H]6CC(=O)N2[C@H]1[C@H]6[C@H]5C[C@H]43)NCCCCC(=O)Nc1ccc2c(c1)[C@@]13CCN4CC5=CCO[C@H]6CC(=O)N2[C@H]1[C@H]6[C@H]5C[C@H]43`, the concentration for half-maximal inhibition (IC50) in assay [1] came out at 4.3 µM; in assay [6], 1340 nM; in assay [3], 1.8 µM; in assay [7], 55 nM. The molecule further yielded a Ki in assay [5] of 81 nM.
Consider `COCCOCCOCCOCCOCCOCCOCCOCCOCCOCCOCCOCCC(=O)NCCCCC(=O)Nc1ccc2c(c1)[C@@]13CCN4CC5=CCO[C@H]6CC(=O)N2[C@H]1[C@H]6[C@H]5C[C@H]43`, for which the 50% inhibitory concentration (IC50) in assay [1] was 15 µM; in assay [6], 852 nM; in assay [3] it was 10 µM; in assay [7], 137 nM. This molecule also registered a Ki in assay [5] of 436 nM.
Broadly, the pIC50 is the IC50 on a negative log10 scale, so that one unit is a factor of ten. Regarding `O=C1C[C@@H]2OCC=C3CN4CC[C@]56c7ccccc7N1[C@H]5[C@H]2[C@H]3C[C@H]46` [STRYCHNINE], in assay [1] (tsa201), the pIC50 is listed as 6.82. For the same molecule, the Ki in assay [5] stood at 5 nM. Also, the IC50 in assay [2] was 50 nM; in assay [6] it was 134 nM; in assay [3] (tsa201), 0.51 µM; in assay [7] it was 27 nM; in assay [4] it was 60 nM.
